Test results reported in ChEMBL document CHEMBL1201862, “PubChem BioAssay data set” (2004).
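Briefly, cells in 96-well plates were exposed to five compound concentrations for 48 h, and endpoints were estimated by linear interpolation. At the GI50, growth is halved.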 Calls of active or inactive are those of the source. Rule as the data show it: active = GI50 up to about 1.1 µM and inactive = higher.

Assays:
Experiment in all cases: growth of human tumour cells (NCI), 48 h
A549 = tested on: A549
ACHN = tested on: ACHN
CAKI-1 = tested on: CAKI-1
COLO 205 = tested on: COLO 205
DU-145 = tested on: DU-145
HCC 2998 = tested on: HCC 2998
HL-60 = tested on: HL-60
HT-29 = tested on: HT-29
NCI-H226 = tested on: NCI-H226
NCI-H23 = tested on: NCI-H23
NCI-H460 = tested on: NCI-H460
NCI-H522 = tested on: NCI-H522
NCI/ADR-RES = tested on: NCI/ADR-RES
OVCAR-5 = tested on: OVCAR-5
SF-295 = tested on: SF-295
SK-MEL-2 = tested on: SK-MEL-2
SK-OV-3 = tested on: SK-OV-3
SNB-19 = tested on: SNB-19
SNB-75 = tested on: SNB-75
TK-10 = tested on: TK-10

Row | Structure (SMILES) | GI50 (A549) | GI50 (ACHN) | GI50 (CAKI-1) | GI50 (COLO 205) | GI50 (DU-145) | GI50 (HCC 2998) | GI50 (HL-60) | GI50 (HT-29) | GI50 (NCI-H226) | GI50 (NCI-H23) | GI50 (NCI-H460) | GI50 (NCI-H522) | GI50 (NCI/ADR-RES) | GI50 (OVCAR-5) | GI50 (SF-295) | GI50 (SK-MEL-2) | GI50 (SK-OV-3) | GI50 (SNB-19) | GI50 (SNB-75) | GI50 (TK-10)
1 | CC(=O)OC(=C(C#N)C#N)c1nccnc1C(=O)O | > 100 µM (inactive) | > 100 µM (inactive) | > 100 µM (inactive) | > 100 µM (inactive) | > 100 µM (inactive) | > 100 µM (inactive) | > 100 µM (inactive) | > 100 µM (inactive) | > 100 µM (inactive) | > 100 µM (inactive) | > 100 µM (inactive) | > 100 µM (inactive) | > 100 µM (inactive) | > 100 µM (inactive) | > 100 µM (inactive) | > 100 µM (inactive) | > 100 µM (inactive) | > 100 µM (inactive) | 95.7 µM (inactive) | 
2 | CN(CCCNC(=O)c1nn(-c2ccccc2)c2c1Cc1ccccc1-2)CCCNC(=O)c1nn(-c2ccccc2)c2c1Cc1ccccc1-2 | 1.66 µM (inactive) | 1.73 µM (inactive) | 1.38 µM (inactive) | 1.45 µM (inactive) | 1.7 µM (inactive) | 1.42 µM (inactive) | 0.603 µM (active) | 1.73 µM (inactive) |  | 1.57 µM (inactive) | 1.66 µM (inactive) | 1.35 µM (inactive) | 1.63 µM (inactive) | 1.75 µM (inactive) | 1.84 µM (inactive) | 1.69 µM (inactive) | 1.72 µM (inactive) | 1.61 µM (inactive) | 1.36 µM (inactive) | 1.74 µM (inactive)
3 | O=C(O)c1cccc(NC(C(=O)c2ccccc2)c2ccccc2)c1 (stereo unspecified) | > 100 µM (inactive) | > 100 µM (inactive) | > 100 µM (inactive) | > 100 µM (inactive) | > 100 µM (inactive) | > 100 µM (inactive) | > 100 µM (inactive) |  |  | > 100 µM (inactive) | > 100 µM (inactive) | 78.9 µM (inactive) | > 100 µM (inactive) | > 100 µM (inactive) | > 100 µM (inactive) | > 100 µM (inactive) | > 100 µM (inactive) | > 100 µM (inactive) |  | > 100 µM (inactive)
4 | COc1ccccc1NC(=S)Nc1cc(C)cc(C)n1 | > 100 µM (inactive) | > 100 µM (inactive) | > 100 µM (inactive) | > 100 µM (inactive) | > 100 µM (inactive) | > 100 µM (inactive) | > 100 µM (inactive) | > 100 µM (inactive) | > 100 µM (inactive) | > 100 µM (inactive) | > 100 µM (inactive) |  | > 100 µM (inactive) | > 100 µM (inactive) | > 100 µM (inactive) | > 100 µM (inactive) | > 100 µM (inactive) | > 100 µM (inactive) | > 49.4 µM (inactive) | > 100 µM (inactive)
5 | CCCCCCCCCCCCCCCCCCNc1nc(=O)n(C2CC(OP(=O)(O)OCC3OC(n4cc(F)c(=O)[nH]c4=O)CC3O)C(CO)O2)cc1F (stereo unspecified) | 7.24 µM (inactive) | 11.2 µM (inactive) | 26.2 µM (inactive) | 20.7 µM (inactive) | 62.2 µM (inactive) | 5.97 µM (inactive) | 5.18 µM (inactive) | 16.6 µM (inactive) | 98.4 µM (inactive) | 38.8 µM (inactive) |  | 30.3 µM (inactive) | 30.3 µM (inactive) | 54.2 µM (inactive) | 13.5 µM (inactive) | 27.5 µM (inactive) | 31.7 µM (inactive) | 12.1 µM (inactive) | 36.9 µM (inactive) | 70.5 µM (inactive)
6 | CCOC(=O)C(C)c1nc2cc(C(F)(F)F)ccc2[nH]c1=O (stereo unspecified) | > 100 µM (inactive) | > 100 µM (inactive) | > 100 µM (inactive) | > 100 µM (inactive) | 84.5 µM (inactive) | > 100 µM (inactive) | 62.7 µM (inactive) | > 100 µM (inactive) | > 100 µM (inactive) | 81.7 µM (inactive) | > 100 µM (inactive) |  | 47.8 µM (inactive) | > 100 µM (inactive) | 49.2 µM (inactive) | > 100 µM (inactive) | > 100 µM (inactive) | > 100 µM (inactive) | > 100 µM (inactive) | > 100 µM (inactive)
7 | CCOc1ccc(/N=N/C2C(=O)N(C(=O)CC(=O)Nc3ccc(Cl)cc3)N=C2C)cc1 (stereo unspecified) | > 100 µM (inactive) | > 100 µM (inactive) | > 100 µM (inactive) | > 100 µM (inactive) | > 100 µM (inactive) | > 100 µM (inactive) | > 100 µM (inactive) | > 100 µM (inactive) | > 100 µM (inactive) | > 100 µM (inactive) | > 100 µM (inactive) | > 100 µM (inactive) | > 100 µM (inactive) | > 100 µM (inactive) | > 100 µM (inactive) | > 100 µM (inactive) | > 100 µM (inactive) |  | 18.4 µM (inactive) | > 100 µM (inactive)
